Three compounds from patent US7314616B1, “Additive containing an anti-fungal amount of a salt of formic acid” (priority 2003, dated 2008) can be followed below.

This test has as its system fungi spores. Nature of the test: inhibitory effect on the growth of fungi spores. The class given is cell-based.

As for `COC1=CC(=O)O[C@@H](CCc2ccccc2)C1` [diydrokawain], the “inhibitory effect on the growth of fungi spores” value is recorded as “exhibit inhibitory effect”. To `COC1=CC(=O)O[C@@H](CCc2ccc3c(c2)OCO3)C1` [dihydromethysticin] belongs “exhibit inhibitory effect”; to `COC1=CC(=O)O[C@@H](/C=C/c2ccccc2)C1` [kawain], “exhibit inhibitory effect”.
